Experimental data reported in PubChem BioAssay (NCI).
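Assay format: 96-well plates, 48-hour exposure. Here, GI50 denotes the concentration required for 50% inhibition of growth. Definition used: TGI = concentration required for complete inhibition of growth.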

Legend:
Assay in all cases: NCI tumour cell line growth inhibition, 48 h
DU-145 prostate = tested on: DU-145 prostate
KM12 colon = tested on: KM12 colon
M14 melanoma = tested on: M14 melanoma
NCI-H23 lung = tested on: NCI-H23 lung
OVCAR-4 ovarian = tested on: OVCAR-4 ovarian
OVCAR-8 ovarian = tested on: OVCAR-8 ovarian
RXF 393 renal = tested on: RXF 393 renal
SK-MEL-5 melanoma = tested on: SK-MEL-5 melanoma
SR leukemia = tested on: SR leukemia
786-0 renal = tested on: 786-0 renal
CCRF-CEM leukemia = tested on: CCRF-CEM leukemia

O=c1ccc2nc(-c3ccccc3)nn(-c3ccccn3)c-2c1
GI50 (DU-145 prostate): 15.5 µM | TGI (DU-145 prostate): 30.7 µM | GI50 (KM12 colon): 25.5 µM | TGI (KM12 colon): 70.2 µM | GI50 (M14 melanoma): 16.7 µM | TGI (M14 melanoma): 44.6 µM | GI50 (NCI-H23 lung): 13.6 µM | TGI (NCI-H23 lung): 45.1 µM | GI50 (OVCAR-4 ovarian): 1.67 µM | TGI (OVCAR-4 ovarian): 3.19 µM | GI50 (OVCAR-8 ovarian): 8.87 µM | TGI (OVCAR-8 ovarian): > 100 µM | GI50 (RXF 393 renal): 1.79 µM | TGI (RXF 393 renal): 3.3 µM | GI50 (SK-MEL-5 melanoma): 13.9 µM | TGI (SK-MEL-5 melanoma): 33.6 µM | GI50 (SR leukemia): 2.97 µM | TGI (SR leukemia): 18.5 µM

CC(C)c1cc(CN(C)C)c(O)c(C(C)(C)C)c1
TGI (786-0 renal): 32.5 µM | TGI (CCRF-CEM leukemia): 30 µM | TGI (DU-145 prostate): > 100 µM | TGI (KM12 colon): 46.2 µM | TGI (M14 melanoma): 78.5 µM | TGI (NCI-H23 lung): > 100 µM | TGI (OVCAR-4 ovarian): 99.1 µM | TGI (OVCAR-8 ovarian): 99.6 µM | TGI (RXF 393 renal): 37.2 µM | TGI (SK-MEL-5 melanoma): 29.9 µM

COC(=O)Nc1nc2cc(OC)c(OC)cc2c(=O)[nH]1
TGI (786-0 renal): > 100 µM | TGI (CCRF-CEM leukemia): > 100 µM | TGI (DU-145 prostate): > 100 µM | TGI (KM12 colon): > 100 µM | TGI (M14 melanoma): > 100 µM | TGI (NCI-H23 lung): > 100 µM | TGI (OVCAR-4 ovarian): > 100 µM | TGI (OVCAR-8 ovarian): > 100 µM | TGI (SK-MEL-5 melanoma): > 100 µM | TGI (SR leukemia): > 100 µM

N=C(c1ccc2ccccc2c1)c1ccccc1Cc1ccccc1
TGI (786-0 renal): > 100 µM | TGI (CCRF-CEM leukemia): 82.8 µM | TGI (DU-145 prostate): 96.6 µM | TGI (KM12 colon): > 100 µM | TGI (M14 melanoma): > 100 µM | TGI (NCI-H23 lung): > 100 µM | TGI (OVCAR-4 ovarian): > 100 µM | TGI (OVCAR-8 ovarian): > 100 µM | TGI (RXF 393 renal): 34.4 µM | TGI (SK-MEL-5 melanoma): > 100 µM | TGI (SR leukemia): > 100 µM

NC(=O)C(N)=O
TGI (786-0 renal): > 100 µM | TGI (CCRF-CEM leukemia): > 100 µM | TGI (KM12 colon): > 100 µM | TGI (M14 melanoma): > 100 µM | TGI (NCI-H23 lung): > 100 µM | TGI (OVCAR-8 ovarian): > 100 µM | TGI (RXF 393 renal): > 100 µM | TGI (SK-MEL-5 melanoma): > 100 µM | TGI (SR leukemia): > 100 µM

Nc1nc(N)c2c(n1)NC(=O)c1c(c3ccccc3n1Cc1ccc(Cl)cc1)C2
TGI (CCRF-CEM leukemia): 42.8 µM | TGI (DU-145 prostate): 29.3 µM | TGI (M14 melanoma): > 100 µM | TGI (NCI-H23 lung): > 100 µM | TGI (OVCAR-4 ovarian): 49.9 µM | TGI (OVCAR-8 ovarian): 96.6 µM | TGI (RXF 393 renal): 33.4 µM | TGI (SK-MEL-5 melanoma): 28.6 µM

CC(C)(C)N1C(C(=O)c2ccccc2)C1c1ccccc1 (stereo unspecified)
TGI (CCRF-CEM leukemia): > 100 µM | TGI (KM12 colon): > 100 µM | TGI (M14 melanoma): > 100 µM | TGI (NCI-H23 lung): > 100 µM | TGI (OVCAR-4 ovarian): > 100 µM | TGI (OVCAR-8 ovarian): > 100 µM | TGI (RXF 393 renal): > 100 µM | TGI (SK-MEL-5 melanoma): > 100 µM

O=C(CSc1nc2ccccc2s1)c1sc2sc3ccccc3[n+]2c1[O-]
TGI (786-0 renal): > 100 µM | TGI (DU-145 prostate): > 100 µM | TGI (KM12 colon): > 100 µM | TGI (M14 melanoma): > 100 µM | TGI (NCI-H23 lung): > 100 µM | TGI (OVCAR-4 ovarian): > 100 µM | TGI (OVCAR-8 ovarian): > 100 µM | TGI (RXF 393 renal): > 100 µM | TGI (SK-MEL-5 melanoma): > 100 µM | TGI (SR leukemia): > 100 µM

O=C1c2ccccc2C(=O)c2c(Nc3ccc4c5c(cccc35)C(=O)c3ccccc3-4)cccc21
TGI (786-0 renal): > 100 µM | TGI (DU-145 prostate): > 100 µM | TGI (KM12 colon): > 100 µM | TGI (M14 melanoma): > 100 µM | TGI (NCI-H23 lung): > 100 µM | TGI (OVCAR-4 ovarian): > 100 µM | TGI (RXF 393 renal): > 100 µM | TGI (SK-MEL-5 melanoma): > 100 µM | TGI (SR leukemia): > 100 µM

Nc1c2c(=O)[nH]c(=O)c2c(N)c2c(=O)c3ccccc3c(=O)c12
TGI (786-0 renal): 10.9 µM | TGI (CCRF-CEM leukemia): > 26.7 µM | TGI (DU-145 prostate): 3.95 µM | TGI (KM12 colon): 7.56 µM | TGI (M14 melanoma): 0.88 µM | TGI (NCI-H23 lung): 3.17 µM | TGI (OVCAR-4 ovarian): 3.39 µM | TGI (OVCAR-8 ovarian): 5.82 µM | TGI (RXF 393 renal): 35.6 µM | TGI (SK-MEL-5 melanoma): 0.394 µM

CC(C)(C)OC(=O)c1cnc(Cl)cn1
TGI (786-0 renal): > 100 µM | TGI (CCRF-CEM leukemia): 72.7 µM | TGI (DU-145 prostate): > 100 µM | TGI (KM12 colon): > 100 µM | TGI (M14 melanoma): > 100 µM | TGI (NCI-H23 lung): 55.4 µM | TGI (OVCAR-4 ovarian): 91.9 µM | TGI (OVCAR-8 ovarian): > 100 µM | TGI (SK-MEL-5 melanoma): > 100 µM | TGI (SR leukemia): > 100 µM

C=CC[N+]12CN3CN(CN(C3)C1)C2
TGI (CCRF-CEM leukemia): 30.3 µM | TGI (DU-145 prostate): 46.9 µM | TGI (KM12 colon): 66.8 µM | TGI (M14 melanoma): 82.3 µM | TGI (NCI-H23 lung): 52.8 µM | TGI (OVCAR-4 ovarian): 52.9 µM | TGI (OVCAR-8 ovarian): 57.6 µM | TGI (RXF 393 renal): 38 µM | TGI (SK-MEL-5 melanoma): > 100 µM

C#CCOc1c(C(=O)OCC)c(=O)n(C)c2ccccc12
TGI (CCRF-CEM leukemia): > 100 µM | TGI (M14 melanoma): > 100 µM | TGI (NCI-H23 lung): > 100 µM | TGI (OVCAR-8 ovarian): > 100 µM | TGI (SK-MEL-5 melanoma): > 100 µM

COc1ccc(C[C@H](N)C(=O)NC2C(CO)OC(n3cnc4c(N(C)C)ncnc43)C2O)cc1 (stereo partly specified)
TGI (CCRF-CEM leukemia): 0.845 µM | TGI (KM12 colon): 1.32 µM | TGI (M14 melanoma): 1.77 µM | TGI (NCI-H23 lung): 0.432 µM | TGI (OVCAR-4 ovarian): 2.1 µM | TGI (OVCAR-8 ovarian): 0.68 µM | TGI (RXF 393 renal): 0.73 µM | TGI (SK-MEL-5 melanoma): 0.847 µM | TGI (SR leukemia): 0.595 µM
